Broadly, the IC50 is the concentration needed to halve the response being measured.

Entries after “also recorded” stand apart in the source; their conditions may differ. Like-named read-outs stand apart in the source and are kept apart here. Some results are limits rather than exact numbers.

Here are results for six compounds from article PMC5099944, “Design, synthesis and biological evaluation of hybrids of β-carboline and salicylic acid as potential anticancer and apoptosis inducing agents” (Scientific Reports, 2016).

The subject of series [1] is SMMC-7721 cells. Briefly: MTT assay, proliferation of SMMC-7721 cells. Type of series: cell-based, human. Here is the method: (§1) The in vitro antitumor activities of the synthesized compounds 7a-l and 8a-l against five human cancer cells were evaluated in MTT assays using 5-fluorouracil (5-FU) and harmine as positive controls. These cells are human hepatocellular carcinoma cells (SMMC-7721 and Hep G2), human colon cancer cell lines (HCT116), human bladder carcinoma cells (EJ), and human lung cancer cells (H460).
(§2) Hepatocellular carcinoma cells (SMMC-7721 and Hep G2), Human colon cancer cell lines (HCT116), human bladder carcinoma cells (EJ) or human lung cancer cells (H460) at 10^4 cells per well were cultured in 10% FBS DMEM in 96-well flat-bottom microplates overnight. The cells were incubated in triplicate with, or without, different concentrations of each test compound for 48 h. During the last 4 h incubation, 30 μL of tetrazolium dye (MTT) solution (5 mg mL^−1) was added to each well. The resulting MTT-formazan crystals were dissolved in 150 μL DMSO, and absorbance was measured spectrophotometrically at 570 nm using an ELISA plate reader. The inhibition induced by each test compound at the indicated concentrations was expressed as a percentage. The concentration required for 50% inhibition (IC50) was calculated using the software (GraphPadPrism Version 4.03).
In general terms: Tetrazolium assays rely on reduction of a dye to a coloured formazan, in cell work by metabolically active cells.

For series [2], the system named is Hep G2 cells. Briefly: MTT assay, proliferation of Hep G2 cells. Type of series: cell-based. As to conditions: Homo sapiens, HepG2, 48 h, read-out: In vitro cytotoxicity (IC50) Hep G2. The procedure: as §1, §2
Series [3] deals with HCT116 cells. Briefly: MTT assay, proliferation of HCT116 cells. The class given is cell-based. As to conditions: Homo sapiens, HCT-116, 48 h, read-out: In vitro cytotoxicity (IC50) HCT116. The procedure: as §1, §2
For series [4], the system named is SMMC-7721 cells. The series is described as follows: Flow cytometry assay of cell apoptosis (FITC-Annexin V/PI). Type of series: cell-based, human. As to conditions: 14 μM, 48 h. Here is the method:
To determine whether apoptosis is involved in the anti-proliferative effects of 8h, apoptosis assay was performed using SMMC-7721 cells. The cells were incubated with either vehicle alone, different concentrations of 8h (7.0 or 14 μM), or 14 μM 5-FU for 48 h, and then stained with FITC-Annexin V and propidium iodide (PI). The percentages of apoptotic SMMC-7721 cells were determined by flow cytometry analysis. In the vehicle group, the occurrence of SMMC-7721 cell apoptosis was minimal. […] Low concentration of 8h (7.0 μM) induced 46% SMMC-7721 cell apoptosis, while the higher dose (14 μM) of 8h induced 63% SMMC-7721 cell apoptosis.
Figure 4 Compound 8h induced SMMC-7721 cell apoptosis in vitro. SMMC-7721 cells were incubated with the indicated concentrations of 8h and 14 μM 5-FU for 48 h, and the cells were stained with FITC-Annexin V and PI, followed by flow cytometry analysis. (A) Flow cytometry analysis. (B) Quantitative analysis of apoptotic cells. Data are expressed as means ± SD of the percentages of apoptotic cells from three independent experiments. *P < 0.01 vs control.
SMMC-7721 cells were cultured overnight and incubated in triplicate with compound 8h (7.0 and 14 μM), 5-FU (14 μM), or vehicle for 48 h. The cells were harvested, and stained with FITC-Annexin V and PI (BioVision) at room temperature for 15 min. The percentage of apoptotic cells was determined by flow cytometry (Beckman Coulter) analysis.

Series [5] concerns human cancer cells (SMMC-7721, Hep G2, HCT116, EJ, H460). Briefly: MTT assay, summary statements across several human cancer cell lines. The class given is cell-based. The conditions noted are these: Homo sapiens, MTT. Here is the method: as §1, §2
For series [6], the system named is LO2 cells. Briefly: MTT assay, proliferation of normal liver LO2 cells. The class given is cell-based, human. As to conditions: 25 μM, 48 h, MTT assay. Here is the method: Given the strong growth inhibitory activity of 8h in vitro, it was profiled for antitumor selectivity by examining its inhibitory effects on the growth of SMMC-7721 cells and LO2 cells (human hepatocellular normal cells).
Figure 3 (A) Inhibitory effects of 8h on the proliferation of SMMC-7721 and LO2 cells. Cells were incubated with the indicated concentrations of 8h for 48 h. Cell proliferation was assessed using the MTT assay. Data are means ± SD of the inhibition (%) from three independent experiments. (B) Inhibitory effects of 5h, 8h, and SA or the vehicle control against SMMC-7721 and LO2 cells. SMMC-7721 and LO2 cells were incubated with the indicated compounds at 25 μM for 48 h, and cell proliferation was assessed by the MTT assay. Data are means ± SD of the inhibition (%) from three independent experiments. *P < 0.01 versus control of SMMC-7721, ^#P < 0.01 inhibitory effects of 8h in SMMC-7721 versus LO2 cells.
as §2

The subject of series [7] is EJ cells. Briefly: MTT assay, proliferation of EJ cells. Type of series: cell-based. The conditions noted are these: 48 h, EJ human bladder carcinoma cells, read-out: In vitro cytotoxicity (IC50) EJ. The procedure: as §1, §2
The test system of series [8] is H460 cells. Briefly: MTT assay, proliferation of H460 cells. The class given is cell-based. The conditions noted are these: NCI-H460, 48 h, H460 human lung cancer cells, read-out: In vitro cytotoxicity (IC50) H460. The procedure: as §1, §2
Setting [9] is: Homo sapiens, SMMC-7721, 48 h, read-out: In vitro cytotoxicity (IC50) SMMC-7721, MTT assay, 48 h, SMMC-7721 human hepatocellular carcinoma cells.
Where [10] appears, read: cancer cell lines tested (SMMC-7721, Hep G2, HCT116), read-out: Antitumor activities (IC50) of capped analogs.

Consider `O=c1[nH]cc(F)c(=O)[nH]1` [5-FU, 5-fluorouracil, reference compound], for which the IC50 was 28.7 µM in series [1] (setting [9]); 35.2 µM in series [2]; 19.6 µM in series [3]; 19.6 to 35.2 µM in series [5] (SMMC-7721, Hep G2, HCT116, read-out: IC50 values for liver and colon cancer cells growth (range over cell lines)). Further, the “SMMC-7721 cell apoptosis (percentage of apoptotic cells)” value in series [4] is listed as 22%.

Take `Cc1nc(C(=O)NCCCCCN)cc2c1[nH]c1ccccc12` [5h, N-(5-Aminopentyl)-1-methyl-9H-pyrido[3,4-b]indole-3-carboxamide]: in series [1] (setting [9]), the half-maximal inhibitory concentration (IC50) turned out to be 27.2 ± 3.4 µM. In series [1] (Homo sapiens, SMMC-7721, 25 μM, 48 h, MTT assay, read-out: Inhibition of SMMC-7721 cell proliferation), the inhibition at 25 µM is ~42%. In addition, the “Inhibitory effect on LO2 cells” value in series [6] is recorded as “a similar effect was seen in the non-tumor LO2 cells; also recorded: high toxicities”.

In the case of `O=C(NCCCCCCNC(=O)c1ccccc1O)c1cc2c(cn1)[nH]c1ccccc12` [8j, N-(6-(2-Hydroxybenzamido)hexyl)-9H-pyrido[3,4-b]indole-3-carboxamide], the IC50 was found to be 13.4 µM in series [1] (setting [9]); 17.2 µM in series [2]; 18.6 µM in series [3]; 16.5 µM in series [7]; 21.5 µM in series [8].

With `Cc1nc(C(=O)NCCCCCCNC(=O)c2ccccc2O)cc2c1[nH]c1ccccc12` [8k, N-(6-(2-Hydroxybenzamido)hexyl)-1-methyl-9H-pyrido[3,4-b]indole-3-carboxamide], the IC50 in series [1] (setting [9]) stood at 10.1 µM; in series [2] it was 13.6 µM; in series [3] it was 10.7 µM; in series [7], 13.2 µM; in series [8], 11.4 µM.

As to `CC(=O)NCCCCCNC(=O)c1cc2c([nH]c3ccccc32)c(C)n1` [10a, N-(5-acetamidopentyl)-1-methyl-9H-pyrido[3,4-b]indole-3-carboxamide], the IC50 is 58.6 ± 6.7 µM in series [1] (setting [9]); > 50 µM in series [1] (human, 48 h); > 50 µM in series [2]; > 50 µM in series [3]; > 50 µM in series [5] (setting [10]).

Regarding `Cc1nc(C(=O)NCCCCCNC(=O)c2ccccc2)cc2c1[nH]c1ccccc12` [10b, N-(5-benzamidopentyl)-1-methyl-9H-pyrido[3,4-b]indole-3-carboxamide], the half-inhibitory concentration (IC50) in series [1] (setting [9]) was > 100 µM; in series [1] (human, 48 h) it was > 50 µM; in series [2], > 50 µM; in series [3], > 50 µM; in series [5] (setting [10]), > 50 µM.
